According to US12365687B2 (Hoffmann-La Roche Inc., priority 2021, dated 2025):

What was measured:
[1] = target: α2β2γ1 GABAA receptor subtype (Homo sapiens (Human), UniProt P47869+Q8N1C3); test: Two-electrode voltage clamp electrophysiology in Xenopus oocytes expressing GABAA receptors (modulation of GABA EC20 current); format: cell-based; conditions: for Efficacy (GABA)%: % modulation of GABA EC20 = 100*(Fold increase-1), α2β2γ1 oocytes, compound at approx. 30-fold Ki; for Fold increase h-GABA-A α2β2γ1 oocyte @ 30-fold Ki: Xenopus oocytes expressing α2β2γ1, compound at approx. 30-fold its Ki α2β2γ1, GABA EC20 current
Method in brief: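 Two-electrode voltage clamp at −80 mV, room temperature, 3-5 days after mRNA injection into oocytes. GABA applied at EC20 for 1.5 min, twice, with compound during second application; at least 3 oocytes per concentration. Efficacy = extremum of point-by-point current ratio, expressed as 100×(fold increase−1).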

[2] = target: human GABAA α2β2γ1 receptor (Homo sapiens (Human), UniProt P47869+Q8N1C3); test: Radioligand binding assay for γ1-containing GABAA subtypes, [3H]RO7239181 competition (α2β2γ1)
[3] = target: human GABAA α5β2γ1 receptor (Homo sapiens (Human), UniProt P31644+Q8N1C3); test: Radioligand binding assay for γ1-containing GABAA subtypes, [3H]RO7239181 competition (α5β2γ1)
[4] = target: human GABAA α1β3γ2 receptor (Homo sapiens (Human), UniProt P14867+P18507); test: Radioligand binding assay for γ2-containing GABAA subtypes, [3H]Flumazenil competition (α1β3γ2); conditions: for γ2/γ1 Selectivity Ratio: Ki α1β3γ2 (nM)/Ki α2β2γ1 (nM); for LogSel: Log[Ki α1β3γ2 (nM)/Ki α2β2γ1 (nM)]
[5] = Ki h-GABAA α2β2γ1, [3H]RO7239181 competition binding, human GABAA α2β2γ1
[6] = Ki h-GABAA α2β2γ1, displacement of [3H]RO7239181, membranes of HEK293F cells expressing human receptors, means of two determinations

SMILES | Efficacy (GABA)% [1] [%] | Fold increase h-GABA-A α2β2γ1 oocyte @ 30-fold Ki [1] | Ki [2, 5] [nM] | Ki [2, 6] [nM] | Ki [3] [nM] | Ki [4] [nM] | γ2/γ1 Selectivity Ratio [4] | LogSel [4]
C[C@@H]1N=C(c2c(F)cccc2F)c2c(ccc(Cl)c2Cl)-n2nc(C(=O)N3CC(OC(F)F)C3)nc21 [Example 31, [(4S)-7,8-dichloro-6-(2,6-difluorophenyl)-4-methyl-4H-[1,2,4]triazolo[1,5-a][1,4]benzodiazepin-2-yl]-[3-(difluoromethoxy)azetidin-1-yl]methanone] | 66 | 1.66 | 17 | 17 | 1.33 | 565 | 33.2 | 1.52
C[C@@H]1N=C(c2ncccc2F)c2c(ccc(C(F)(F)F)c2Cl)-n2nc(N3CCOC3=O)nc21 [Example 147, 3-[(4S)-7-chloro-6-(3-fluoro-2-pyridyl)-4-methyl-8-(trifluoromethyl)-4H-[1,2,4]triazolo[1,5-a][1,4]benzodiazepin-2-yl]oxazolidin-2-one] | 113 | 2.13 | 49.3 | 49.4 | 7.44 | 12600 | 255.4 | 2.41
O=C(c1nc2n(n1)-c1ccc(Cl)c(Cl)c1C(c1c(F)cccc1F)=NC2)N1CCC1 [Example 8, azetidin-1-yl-[7,8-dichloro-6-(2,6-difluorophenyl)-4H-[1,2,4]triazolo[1,5-a][1,4]benzodiazepin-2-yl]methanone] | 98 | 1.98 | 8.2 | 8.2 | 1.08 | 368 | 44.7 | 1.65
C[C@@H]1N=C(c2ncccc2F)c2c(ccc(C(F)(F)F)c2Cl)-n2c(CO)cnc21 [Example 151, [(4S)-7-chloro-6-(3-fluoro-2-pyridyl)-4-methyl-8-(trifluoromethyl)-4H-imidazo[1,2-a][1,4]benzodiazepin-1-yl]methanol] | 253 | 3.53 | 92.8 | 92.8 | 24 | 13200 | 142.0 | 2.15
C[C@@H]1N=C(c2c(F)cccc2F)c2c(ccc(Cl)c2Cl)-n2nc(C(F)F)nc21 [Example 18] | 70 | 1.70 | 11.9 | 11.9 | 0.69 | 437 | 36.8 | 1.57
C[C@@H]1N=C(c2c(F)cccc2F)c2c(ccc(C(F)(F)F)c2Cl)-n2nc(NC(=O)N3CCS(=O)(=O)CC3)nc21 [Example 131, N-[(4S)-7-chloro-6-(2,6-difluorophenyl)-4-methyl-8-(trifluoromethyl)-4H-[1,2,4]triazolo[1,5-a][1,4]benzodiazepin-2-yl]-1,1-dioxo-1,4-thiazinane-4-carboxamide] | 104 | 2.04 | 13.8 | 13.8 | 3.38 | 2430 | 176.5 | 2.25
Cc1nc2n(n1)-c1ccc(C(F)(F)F)c(Cl)c1C(c1ncccc1F)=N[C@H]2C [Example 83, (4S)-7-chloro-6-(3-fluoro-2-pyridyl)-2,4-dimethyl-8-(trifluoromethyl)-4H-[1,2,4]triazolo[1,5-a][1,4]benzodiazepine] | 154 | 2.54 | 70.8 | 70.8 | 5.54 | 5490 | 77.6 | 1.89
Cc1cnc2n1-c1ccc(Br)c(Cl)c1C(c1c(F)cccc1F)=N[C@H]2C [Example 116, (4S)-8-bromo-7-chloro-6-(2,6-difluorophenyl)-1,4-dimethyl-4H-imidazo[1,2-a][1,4]benzodiazepine] | 35 | 1.35 | 5.7 | 5.7 | 2.47 | 94.5 | 16.4 | 1.22
C[C@@H]1N=C(c2c(F)cccc2F)c2c(ccc(C(F)(F)F)c2Cl)-n2ncnc21 [Example 22, (4S)-7-chloro-6-(2,6-difluorophenyl)-4-methyl-8-(trifluoromethyl)-4H-[1,2,4]triazolo[1,5-a][1,4]benzodiazepine] | 78 | 1.78 | 11.4 | 11.4 | 1.02 | 1560 | 136.7 | 2.14
CC1CN(C(=O)c2cn3c(n2)[C@H](C)N=C(c2ncccc2F)c2c-3ccc(C(F)(F)F)c2Cl)C1 [Example 163, (3-methylazetidin-1-yl)-[(4S)-7-chloro-6-(3-fluoro-2-pyridyl)-4-methyl-8-(trifluoromethyl)-4H-imidazo[1,2-a][1,4]benzodiazepin-2-yl]methanone] | 136 | 2.36 | 87.1 | 101 | 20.6 | 13500 | 134.0 | 2.13
Cc1c(C(=O)NCCO)nc2n1-c1ccc(C(F)(F)F)c(Cl)c1C(c1ncccc1F)=N[C@H]2C [Example 154, (4S)-7-chloro-6-(3-fluoro-2-pyridyl)-N-(2-hydroxyethyl)-1,4-dimethyl-8-(trifluoromethyl)-4H-imidazo[1,2-a][1,4]benzodiazepine-2-carboxamide] | 191 | 2.91 | 68.7 | 68.7 | 23 | 11400 | 166.6 | 2.22
C[C@@H]1N=C(c2c(F)cccc2F)c2c(ccc(Cl)c2Cl)-n2nc(C(=O)N3CC4(CCO4)C3)nc21 [Example 94, [(4S)-7,8-dichloro-6-(2,6-difluorophenyl)-4-methyl-4H-[1,2,4]triazolo[1,5-a][1,4]benzodiazepin-2-yl]-(1-oxa-6-azaspiro[3.3]heptan-6-yl)methanone] | 76 | 1.76 | 3.9 | 3.89 | 1.43 | 586 | 150.7 | 2.18
C[C@@H]1N=C(c2c(F)cccc2F)c2c(ccc(Cl)c2Cl)-n2nc(C(=O)N3CC(O)C3)nc21 [Example 25, [(4S)-7,8-dichloro-6-(2,6-difluorophenyl)-4-methyl-4H-[1,2,4]triazolo[1,5-a][1,4]benzodiazepin-2-yl]-(3-hydroxyazetidin-1-yl)methanone] | 63 | 1.63 | 4 | 3.98 | 1.44 | 688 | 172.8 | 2.24
C[C@@H]1N=C(c2ncccc2F)c2c(ccc(C(F)(F)F)c2Cl)-n2nc(NC(=O)NC3COC3)nc21 [Example 146, 1-[(4S)-7-chloro-6-(3-fluoro-2-pyridyl)-4-methyl-8-(trifluoromethyl)-4H-[1,2,4]triazolo[1,5-a][1,4]benzodiazepin-2-yl]-3-(oxetan-3-yl)urea] | 111 | 2.11 | 36.1 | 36.1 | 7.2 | 13100 | 364.3 | 2.56
C[C@@H]1N=C(c2c(F)cccc2F)c2c(ccc(Cl)c2Cl)-n2nc(C(=O)N3CC(C(F)F)C3)nc21 [Example 75, [3-(difluoromethyl)azetidin-1-yl]-[(4S)-7,8-dichloro-6-(2,6-difluorophenyl)-4-methyl-4H-[1,2,4]triazolo[1,5-a][1,4]benzodiazepin-2-yl]methanone] | 41 | 1.41 | 13.8 | 13.8 | 1.14 | 737 | 53.4 | 1.73
C[C@@H]1N=C(c2ncccc2F)c2c(ccc(Cl)c2Cl)-n2nc(C(=O)N3CC(O)C3)nc21 [Example 44, [(4S)-7,8-dichloro-6-(3-fluoro-2-pyridyl)-4-methyl-4H-[1,2,4]triazolo[1,5-a][1,4]benzodiazepin-2-yl]-(3-hydroxyazetidin-1-yl)methanone] | 133 | 2.33 | 25.9 | 25.9 | 9.52 | 6620 | 255.1 | 2.41
C[C@@H]1N=C(c2ncccc2F)c2c(ccc(C(F)(F)F)c2Cl)-n2cc(C(=O)N3CC(C)(O)C3)nc21 [Example 160, (3-hydroxy-3-methyl-azetidin-1-yl)-[(4S)-7-chloro-6-(3-fluoro-2-pyridyl)-4-methyl-8-(trifluoromethyl)-4H-imidazo[1,2-a][1,4]benzodiazepin-2-yl]methanone] | 177 | 2.77 | 66.4 | 66.3 | 19.2 | 13300 | 201.1 | 2.30
